Reference: PubChem BioAssay (NCI)
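Protocol summary: plate cells (96-well), add compound at 5 concentrations, incubate 48 h, interpolate endpoints linearly. At the TGI there is no net growth.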 Where a SMILES comes first, the peptide text is derived from it. The star is where a group is joined. Boc = CC(C)(C)OC(=O)*

Assays:
Assay in all cases: inhibition of tumour cell growth, NCI panel, 48 h
LOX IMVI melanoma = system: LOX IMVI melanoma
MDA-MB-231 breast = system: MDA-MB-231 breast
MDA-MB-435 = system: MDA-MB-435
SF-268 CNS = system: SF-268 CNS
SK-OV-3 ovarian = system: SK-OV-3 ovarian
SN12C renal = system: SN12C renal
UACC-62 melanoma = system: UACC-62 melanoma
UO-31 renal = system: UO-31 renal
SW-620 colon = system: SW-620 colon
SNB-75 CNS = system: SNB-75 CNS

Row | Compound | TGI (LOX IMVI melanoma) | TGI (MDA-MB-231 breast) | TGI (MDA-MB-435) | TGI (SF-268 CNS) | TGI (SK-OV-3 ovarian) | TGI (SN12C renal) | TGI (UACC-62 melanoma) | TGI (UO-31 renal) | TGI (SW-620 colon) | TGI (SNB-75 CNS)
1 | CCN(CCO)CC1COc2ccccc2O1 (configuration not stated) | > 100 µM | > 100 µM | > 100 µM | > 100 µM | > 100 µM | > 100 µM | > 100 µM | > 100 µM |  | 
2 | COC(=O)[C@]12CC[C@H]3CN(C(=O)OCc4ccccc4)[C@H]([C@H]31)[C@H](c1ccco1)N2S(=O)(=O)c1ccc(C)cc1 | 32.3 µM | > 100 µM | 67.3 µM | 59.3 µM | > 100 µM | 39 µM | 36.1 µM | 46.6 µM | > 100 µM | 
3 | C=CCOC(=O)CC[N+]1=CCC(c2ccccc2)(c2ccccc2)O1 |  | > 100 µM | > 100 µM | > 100 µM | > 100 µM | > 100 µM | > 100 µM | > 100 µM | > 100 µM | 
4 | COC(=O)c1c2c(cc3c1CC1(C3)Cc3cc4c(c(C(=O)OC)c3C1)CCCC4)CCCC2 | > 100 µM | > 100 µM | > 100 µM |  | > 100 µM | > 100 µM | > 100 µM | 1.23 µM |  | 
5 | C=CC[C@]12C[C@@H](C(=O)OC)N(C(=O)OC)[C@H]1N(S(=O)(=O)c1ccccc1)c1ccccc12 |  | > 100 µM | > 100 µM | > 100 µM | > 100 µM | > 100 µM |  | > 100 µM | > 100 µM | > 100 µM
6 | BrC/C=C/C[P+](c1ccccc1)(c1ccccc1)c1ccccc1 | 33.5 µM |  |  | > 100 µM | > 100 µM | > 100 µM | 52.3 µM | > 100 µM | > 100 µM | 78.3 µM
7 | Clc1ccc(-c2nn3c(-c4ccncc4)nnc3s2)cc1 | > 100 µM | > 100 µM | > 100 µM | > 100 µM | 84.9 µM | > 100 µM | > 100 µM | > 100 µM | > 100 µM | 
8 | O=C(NCCN1CCOCC1)c1ccc2cc(C(=O)N3CC(CCl)c4ccc([N+](=O)[O-])cc43)[nH]c2c1 (configuration not stated) | > 100 µM | 36.3 µM | 49.2 µM | 31.3 µM | 40.5 µM | 52.7 µM | 43.4 µM | > 100 µM | > 100 µM | 
9 | CC(C)(C)OC(=O)NCC(=O)NCC(=O)NCC(=O)NCC(=O)O (Boc-GGGG-OH) | > 100 µM | > 100 µM | > 100 µM | > 100 µM | > 100 µM | > 100 µM | > 100 µM | > 100 µM | > 100 µM | 
10 | COc1ccc(C2(CC(C)O)SCCCS2)cc1 (configuration not stated) |  | > 100 µM | > 100 µM | > 100 µM | > 100 µM | > 100 µM | > 100 µM | > 100 µM | > 100 µM | > 100 µM
11 | N=S(c1ccccc1)c1ccccc1[N+](=O)[O-] (configuration not stated) | 28.2 µM |  |  | 42.1 µM | 84.6 µM | 29.2 µM | 36.2 µM | 29.5 µM | 31.4 µM | 95.1 µM
12 | C=CCNC(=S)/N=C/c1c(O)c2ccccc2oc1=O | > 100 µM |  |  | > 100 µM | > 100 µM | > 100 µM | > 100 µM | > 100 µM | > 100 µM | > 100 µM
13 | CCN(CC)CCOc1ccc(N2C(=O)c3cc(OC)c(OC)cc3C2=O)cc1 | > 100 µM | > 100 µM | > 100 µM | > 100 µM | > 100 µM | > 100 µM | > 100 µM |  | > 100 µM | 
14 | O=c1ccc2cc3ccc4cccc5ccc(c2o1)c3c45 | 55.6 µM |  |  | > 100 µM | 32.6 µM | > 100 µM | > 100 µM | 44.9 µM | > 100 µM | 50 µM
15 | COc1ccc2nc3cc(Cl)ccc3c(NCCCNCCCNc3c4ccc(Cl)cc4nc4ccc(OC)cc34)c2c1 | 0.0145 µM | 0.0555 µM |  |  | 0.384 µM | 0.285 µM | 0.189 µM | 0.989 µM |  | 0.23 µM
16 | COc1ccc(C#CC(=O)O)c(OC)c1 | > 100 µM | > 100 µM | > 100 µM |  | > 100 µM | > 100 µM | > 100 µM | > 100 µM | > 100 µM | 
17 | Cc1cc(=O)c2c([nH]1)NS(=O)(=O)NC2=O |  |  |  | > 100 µM | > 100 µM | > 100 µM | > 100 µM | > 100 µM | > 100 µM | > 100 µM
18 | O=[N+]([O-])/C(C(Cl)=C(Cl)Cl)=C(\Nc1cccc2cccnc12)SCc1ccccc1 |  | > 100 µM | 37.7 µM | 42.3 µM | 43.4 µM | 60.7 µM | 63.7 µM | 38.1 µM | 36.8 µM | 40.9 µM
